Reference: PubChem BioAssay AID2305 (GlaxoSmithKline (GSK), 2010)
“And” between values parts separate entries of the source, which are not always exact repeats. Equal values may be shown once.

Tested on: P. falciparum 3D7 growth, pLDH absorbance
Assay: P. falciparum 3D7 growth inhibition, dose response, strain 3D7 (AID 2305)

Structure (SMILES)	IC50
CNCc1cccc(-c2ccc3ccnc(N)c3c2)c1	0.09 µM
CC(C)CCN(Cc1cncn1Cc1cccc(C(F)(F)F)c1)C(=O)c1cncc(-c2ccccc2)c1	0.77 µM
CC1=C(C(=O)NC2CCC(CN3CCC(c4c[nH]c5ccccc45)CC3)CC2)Cc2ccccc21 (centres undefined)	0.83 µM and 1 µM
CC(C)N1CCN(C(CN2CCN(CCCOc3ccc(-c4ccccc4)cc3)CC2)c2ccc(F)cc2)CC1 (centres undefined)	0.68 µM
O=C(/C=C/c1ccc(Cl)c(Cl)c1)NCCCCCN1CC[C@H](NC(=O)Nc2ccc(Oc3ccccc3)cc2)C1	0.7 µM
CCC(=O)c1cc(C(=O)NCCc2cccc(OC)c2)ccc1OC	0.9 µM
Oc1ccc(Cc2ccccc2)cc1CNC1CCCCC1	0.19 µM
CC(=O)c1ccccc1C(=O)N1CCOc2ccc(C(O)C(c3ccccc3)c3ccccc3)cc2C1 (centres undefined)	0.9 µM
CC(=O)Nc1ncc(C(=O)Nc2cccc(-c3ccc(-c4nc5ccc(C(F)(F)F)cc5[nH]4)cc3)c2)s1	0.59 µM
CS(=O)(=O)c1ccc(-c2cnc(N)c(-c3cccc(O)c3)c2)cc1	0.69 µM
CC(=O)Nc1ccc2[nH]cc(C3CCN(CC4CCC(NC(=O)/C=C/c5ccc(Cl)c(Cl)c5)CC4)CC3)c2c1 (centres undefined)	0.44 µM and 0.72 µM
Cc1nnc2c(NC(=O)NC3CCCC3)cc3ccc(-c4cccc(CN5CCN(C)CC5)c4)cc3n12	0.92 µM
COc1ccc(CN2CCCN(Cc3ccc(C(=O)Nc4ccc(Cl)cc4)cc3)CC2)cc1	0.92 µM
O=C(NCCCCCN1CCC(c2c[nH]c3ccccc23)CC1)Nc1ccc(Cl)c(Cl)c1	0.92 µM
CC(C)c1sc(N2CCCCC2)nc1C(=O)Nc1ccc(F)cc1C(F)(F)F	0.24 µM
Nc1cccc(CNCc2ccc(-c3ccc(-c4nc5ccc(C(F)(F)F)cc5[nH]4)s3)cc2)c1	0.44 µM
COc1cccc(O)c1CNCC(O)c1cccc(C(F)(F)F)c1 (centres undefined)	0.95 µM
CC1CCCN(Cc2c(O)ccc3c(=O)c(-c4nc5ccccc5s4)c(N)oc23)C1 (centres undefined)	0.14 µM
CCCCCn1c(Sc2ccc(C#N)c([N+](=O)[O-])c2)nnc1-c1cccc(Cl)c1	0.77 µM
N#Cc1ccc(-c2nc3c(N4CCCC4)cccc3n2CCNCc2ccccc2)cc1	0.59 µM
COc1ccccc1C1CCN(C2CCC(NC(=O)/C=C/c3ccc(F)c(F)c3)CC2)CC1 (centres undefined)	1.32 µM
Cc1cnc(NCC2CCCCC2)nc1NCC(=O)Nc1ccccc1	0.71 µM
CN1CC=C(c2c[nH]c3ccc(-c4ccccc4)cc23)CC1	0.77 µM
CN(C)CCOc1ccc(NC(=O)NC(C)(C)c2nc(-c3ccc(Cl)c(O)c3)c(-c3ccncc3)[nH]2)cc1	0.11 µM

Structure (SMILES)	IC50
CC(C)CNCc1ccc(-c2ccccc2CNC2CCN(Cc3ccccc3)CC2)cc1	0.57 µM
COc1cccc(OC)c1CN1CCC(N(C)CCCCCCCCN2CCC(OC(=O)Nc3ccccc3-c3ccccc3)CC2)CC1	0.46 µM
Fc1ccc(-c2nc(NCc3cccc(C(F)(F)F)c3)nn2-c2cccc(C(F)(F)F)c2)cc1C(F)(F)F	1.05 µM
CCC[C@@H]([C@@H](CC1CCCCC1)C(=O)N[C@H](C(=O)Nc1nccs1)C(C)(C)SCCOCCOCC)N(O)C=O	0.08 µM
COc1ccc2ncc(F)c(NC(=O)C3CCC(NCc4cc5cc(F)cc(F)c5[nH]4)CC3)c2n1 (centres undefined)	1.09 µM
Cc1cnc2cc3c(cc2c1N1CCN(C)CC1)NCC3	0.78 µM
c1ccc2cc(CNCCCN3CCN(CCCNCc4ccc5ccccc5c4)CC3)ccc2c1	0.55 µM
Cc1[nH]nc2cc(Nc3ccnc(Nc4ccc(CN5CCOCC5)cc4)n3)ccc12	0.95 µM
Cc1ccc(/C=C/C(=O)NC2CCC(N3CCC(c4ccccc4C)CC3)CC2)cc1F (centres undefined)	1.04 µM
COc1ccccc1N(C)CCNc1cc(C)nc(Nc2ccc(C)cc2)n1	1.57 µM
CN(C)CCCN1CCN(C(=O)c2cccc(-c3noc(C(F)(F)F)n3)c2)CC1	0.35 µM
CC(C)CNCc1cccc(-c2cccc(CN(CCN(C)C)C(=O)Nc3ccccc3)c2)c1	0.8 µM
COc1ccc(CN2CCCN(Cc3cccc(NC(=O)c4ccc5ccccc5c4)c3)CC2)cc1	1 µM
O=C(c1cc(C(=O)NCc2ccc(Cl)cc2)c(=O)n(Cc2ccc(Cl)cc2)c1)c1cc(F)ccc1O	0.95 µM
CN(C)CCNCc1ccc(-c2cccc(-c3nc4ccccc4[nH]3)c2)cc1	0.72 µM
CO/C(=C\C=C\c1cc2cc(Cl)c(Cl)cc2[nH]1)C(=O)NCCCN1CCN(c2cccc(CCCO)c2)CC1	1.03 µM
COc1ccc(C(=O)CCC(=O)N(Cc2ccc(-c3ccc(CNCc4cccnc4)cn3)cc2)C2CCN(Cc3ccccc3)CC2)cc1F	0.98 µM
Cc1nnsc1C(=O)Nc1cccc(-c2ccc(-c3nc4ccccc4[nH]3)cc2)c1	0.87 µM
Cc1c(CNCCCNc2nc3cscc3[nH]2)sc(C(F)F)c1Br	0.94 µM
O=C(/C=C/c1ccc(Cl)c(Cl)c1)NC1CCC(CN2CCC(c3c[nH]c4ccncc34)CC2)CC1 (centres undefined)	0.4 µM
Cc1cc(Cl)c(S(=O)(=O)N2CCc3ccccc32)cc1OCC(=O)NC1CCCCC1	0.3 µM
CC(=O)Nc1ccc(CN2CCC(N(C)c3cc(NC(=O)c4cccs4)ccn3)CC2)cc1	0.89 µM
O=C(Nc1ccc(Cn2ncc(N3CCCNCC3)c(Cl)c2=O)cc1)Nc1ccc(-c2ccccc2)cc1	0.82 µM and 0.8 µM
CN1CCC(C(=O)N(Cc2ccc(-c3ccc(CNCCc4ccccc4)cn3)cc2)Cc2cccc(F)c2)CC1	0.94 µM

Structure (SMILES)	IC50
COC(=O)c1cccc(CNCc2cccc(-c3cccc(-c4nc5c(C)cccc5[nH]4)c3)c2)c1	0.19 µM
C#Cc1cccc(NC(=O)[C@H](CC2CCCCC2)Nc2ccc(C#N)c3ccccc23)c1	0.59 µM
COc1cc(NC(=O)N2CCOC(CCN3CCC4(CCc5ccccc54)CC3)(c3ccc(Cl)c(Cl)c3)C2)cc(OC)c1 (centres undefined)	0.82 µM
O=C(NCCCCN1CCC(c2c[nH]c3ccccc23)CC1)c1sc(-c2ccc(C(F)(F)F)cc2)nc1CO	1.2 µM
COc1ccc2ncc(F)c(CCN3CCC(NCc4ccc5c(c4)CCO5)CC3)c2n1	0.68 µM
O=C(NC1CCN(Cc2ccccc2)CC1)c1cccc(Nc2nc(-c3ccccc3)cs2)c1	1.03 µM
Cc1cc2c(cc1C(F)(F)F)N(C(=O)Nc1cc(OCCN(C(C)C)C(C)C)cc(C(F)(F)F)c1)CC2	0.26 µM
CN(C)CCC(O)C=C(c1ccc(Cl)cc1)c1ccc(Cl)cc1 (centres undefined)	0.95 µM
Oc1ccccc1-c1nc2cccnc2n1CCc1cccc(C(F)(F)F)c1	1.27 µM
O=C(/C=C/c1ccc(Cl)c(Cl)c1)NC[C@@H]1CCC[C@H](CN2CCC(c3c[nH]c4ccccc34)CC2)C1	0.73 µM
O=C(N[C@@H](CC1CCCCC1)C(=O)NCc1cccc(C(F)(F)F)c1)c1ccc(O)c(-c2ccc(Cl)c(Cl)c2)c1	0.22 µM
COc1ccccc1C1CCN(C2CCC(NC(=O)/C=C/c3cc(C(F)(F)F)cc(C(F)(F)F)c3)CC2)CC1 (centres undefined)	1.2 µM
COc1ccc(CCN(Cc2cccs2)C(=O)c2cc3sccc3n2C)cc1OC	0.35 µM
COc1ccc(-c2ccc(CNC(=O)c3ccc(C#N)cc3)c(F)c2)cc1CN1CCCN(C)CC1	1.14 µM
COc1ccc(NC(=O)[C@H](C)Nc2cc(C)nc(NCC3CCCCC3)n2)cc1	1.28 µM
COc1ccc(-c2cccc(NC(=O)c3ccc(Cl)cc3)c2)cc1CN(C)CCN(C)C	0.78 µM
COc1ccc2nccc([C@@H](O)CN3CCC(NC(=O)C(c4ccccc4C)N4CCC(Cc5ccccc5)CC4)CC3)c2c1 (some centres undefined)	0.26 µM
CC(C)=CCN1CCC(C(=O)Nc2ccc(-c3nc4ccccc4[nH]3)cc2)CC1	0.91 µM
Cc1cccc2[nH]c(-c3ccc(-c4cccc(CNCc5ccc(S(C)(=O)=O)cc5)c4)s3)nc12	0.33 µM
CN(c1ccc(NC(=O)Nc2cc(C(F)(F)F)ccc2F)cc1)c1ccnc(NCCN2CCOCC2)n1	0.51 µM
CCN(CC)C(=NCCCCCCN=C(/N=C(\N)Nc1ccc(Cl)c(Cl)c1)N(CC)CC)/N=C(\N)Nc1ccc(Cl)c(Cl)c1	0.76 µM
CC(C)CNCc1ccc(-c2ccc(CN(CCCN3CCN(C)CC3)C(=O)/C=C/c3ccccc3)cc2)cc1	0.92 µM
CC1CCN(CC[C@H]2CCCN2S(=O)(=O)c2cccc(NC(=O)c3cc4ccccc4s3)c2)CC1	0.83 µM
Cc1cc(CN2CCC(N3CC(c4ccccc4)(c4ccccc4)OCC3=O)C2)ccc1O (centres undefined)	1.08 µM

Structure (SMILES)	IC50
Cc1sc2ccc(Cl)cc2c1S(=O)(=O)Nc1ccc2nccc(N3C[C@@H](C)N[C@@H](C)C3)c2c1	0.11 µM
O=C(Nc1ccccc1)Nc1cccc(-c2nn3c(OCCN4CCCC4)cccc3c2-c2ccncc2)c1	0.4 µM
Cc1cccc(C(=O)Nc2ccnc(N(C)C3CCN(Cc4cccc(O)c4)CC3)c2)c1	0.94 µM
N#CN1CC[C@H](CS(=O)(=O)c2cccc(Br)c2)C1	0.87 µM
COc1ccc2cc(-c3nc(-c4c(Cl)cccc4Cl)[nH]c3-c3ccnc(NCCCN4CCN(C)CC4)c3)ccc2c1	0.71 µM
c1ccc(CCNCc2cccc(-c3ccc(CNc4ccc5ncccc5c4)cc3)c2)cc1	0.81 µM
Cc1[nH]cc(Br)c(=O)c1-c1ccc(Oc2ccc(OC(F)(F)F)cc2)cc1	0.33 µM
C=C(C)C1CC=C(CN2CCCC(n3ccc4cc(NC(=O)c5ccco5)ccc43)CC2)CC1 (centres undefined)	0.75 µM
O=C(Nc1ccc(C2=NC3CCCCC3N2)cc1)Nc1ccc(C2=NC3CCCCC3N2)cc1 (centres undefined)	0.18 µM
CC(C)c1ccc(NC(=O)c2ccc(CN3CCCN(Cc4cccc(O)c4)CC3)cc2)cc1	0.68 µM
Cc1cc(C)n2nc(C(=O)Nc3cc(C(F)(F)F)ccc3N3CCOCC3)nc2n1	0.12 µM
N#Cc1cccc([C@H](O)[C@@H]2CN(CCC3CCCCC3)CC[C@@]2(O)c2ccccc2)c1	0.13 µM
COc1ccc(-c2nc3cccnc3n2CC(=O)Nc2cc(Cl)c(Cl)cc2Cl)c(OC)c1	0.72 µM
CC(CCc1ccc(OCc2ccccc2)cc1)NCC(O)c1ccccc1 (centres undefined)	1.1 µM
COC(=O)C1(NC(=O)c2ccc(-n3nc(C)c(-c4ccccc4)c3N)cc2)CCCC1	0.37 µM
CN1CCN(Cc2ccc(-c3ccc4c(Nc5ccc(Oc6ccccc6)cc5)ccnc4c3)o2)CC1	0.18 µM
C(=NNc1nc2ccccc2[nH]1)c1ccccc1OCc1ccccc1	0.26 µM
COc1ccc(NC(=O)c2ccc(Br)c(C)c2)cc1N1CCN(Cc2ccccc2)CC1	0.92 µM
CN(Cc1ccc(-c2ccc(C(F)(F)F)cc2)cc1)C(=O)Cn1c(CCc2cccc(F)c2F)cc(=O)c2ccc(OCCCN3CCCCC3)cc21	0.71 µM
COc1ccccc1-c1cccc(Nc2c(Nc3ccc(Cl)cc3)c(=O)c2=O)c1	0.88 µM
CC[C@H]1CN2CC[C@H]1C[C@H]2[C@H](O)c1cc(-c2cccc(C)c2)nc2ccc(OC)cc12	0.16 µM
Cc1cccc(CN2CCCN(Cc3ccc(C(=O)Nc4ccc(Cl)cc4)cc3)CC2)c1	0.6 µM
